According to ChEMBL document CHEMBL4359853, “Antiproliferative activity of (R)-4'-methylklavuzon on hepatocellular carcinoma cells and EpCAM+/CD133+ cancer stem cells via SIRT1 and Exportin-1 (CRM1) inhibition” (Eur J Med Chem, 2019):
Calls of active or inactive are those of the source. No cut-off for these calls is given here.

What was measured:
Hep 3B2 = experiment: Cytotoxicity against human Hep3B cells assessed as growth inhibition; assay type: functional, cell-based
HepG2 [1] = experiment: Induction of apoptosis in human 3D HepG2 spheroids measured after 24 hrs by propidium iodide staining based immunofluorescence microscopy analysis; assay type: functional, cell-based
HepG2 [2] = experiment: Cytotoxicity against human HepG2 cells assessed as reduction in cell viability after 48 to 72 hrs; assay type: functional, cell-based
Huh-7 [3] = experiment: Cytotoxicity against human HuH7 cells assessed as reduction in cell viability measured after 72 hrs by MTT assay; assay type: functional, cell-based; details: Huh-7, 72 h
HepG2 [4] = experiment: Cytotoxicity against human HepG2 cells assessed as reduction in cell viability measured after 48 hrs by MTT assay; assay type: functional, cell-based; details: HepG2, 48 h
HepG2 [5] = experiment: Induction of apoptosis in human 3D HepG2 spheroids at 10 uM measured after 24 hrs by propidium iodide staining based immunofluorescence microscopy analysis; assay type: functional, cell-based
Huh-7 [6] = experiment: Cytotoxicity against human HuH7 cells assessed as reduction in cell viability measured after 48 hrs by MTT assay; assay type: functional, cell-based; details: Huh-7, 48 h
[7] = molecular target: T1, NAD-dependent protein deacetylase sirtuin-1 (Homo sapiens) (UniProt Q96EB6); experiment: Inhibition of human recombinant SIRT1 at 100 uM using FLUOR DE LYS SIRT1, deacetylase as substrate preincubated for 2 mins followed by substrate addition measured after 1 hr in presence of NAD+ by fluorescence assay relative to control
T1 sequence (whole entry): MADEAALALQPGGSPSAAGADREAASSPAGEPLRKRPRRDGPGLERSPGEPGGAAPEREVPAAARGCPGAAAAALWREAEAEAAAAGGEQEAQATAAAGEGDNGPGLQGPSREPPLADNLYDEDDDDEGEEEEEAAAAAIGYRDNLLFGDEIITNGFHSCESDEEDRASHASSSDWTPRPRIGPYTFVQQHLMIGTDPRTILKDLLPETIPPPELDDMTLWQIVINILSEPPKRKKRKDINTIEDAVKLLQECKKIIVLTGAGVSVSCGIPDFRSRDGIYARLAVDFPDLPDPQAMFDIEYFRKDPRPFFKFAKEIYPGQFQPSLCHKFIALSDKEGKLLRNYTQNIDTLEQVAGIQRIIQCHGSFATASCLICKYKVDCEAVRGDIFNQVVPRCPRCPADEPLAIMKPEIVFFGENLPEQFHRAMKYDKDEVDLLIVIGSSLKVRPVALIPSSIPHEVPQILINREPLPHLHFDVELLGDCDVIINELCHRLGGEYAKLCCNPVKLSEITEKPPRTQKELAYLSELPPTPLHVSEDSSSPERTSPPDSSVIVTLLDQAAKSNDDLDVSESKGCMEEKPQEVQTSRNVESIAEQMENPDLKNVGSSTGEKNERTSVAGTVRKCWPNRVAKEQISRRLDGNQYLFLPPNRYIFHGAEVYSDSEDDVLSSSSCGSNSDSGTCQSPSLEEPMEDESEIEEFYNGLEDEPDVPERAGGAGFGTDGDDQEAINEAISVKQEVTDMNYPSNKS

[8] = molecular target: Exportin-1 (Homo sapiens) (UniProt O14980); experiment: Inhibition of CRM1 in human HuH7 cells assessed as accumulation of RIOK2 in nucleus at 1 and 10 uM measured after 24 hrs by DAPI staining based confocal microscopy analysis; assay type: cell-based
Sequence of Exportin-1 (Homo sapiens) (O14980 whole entry): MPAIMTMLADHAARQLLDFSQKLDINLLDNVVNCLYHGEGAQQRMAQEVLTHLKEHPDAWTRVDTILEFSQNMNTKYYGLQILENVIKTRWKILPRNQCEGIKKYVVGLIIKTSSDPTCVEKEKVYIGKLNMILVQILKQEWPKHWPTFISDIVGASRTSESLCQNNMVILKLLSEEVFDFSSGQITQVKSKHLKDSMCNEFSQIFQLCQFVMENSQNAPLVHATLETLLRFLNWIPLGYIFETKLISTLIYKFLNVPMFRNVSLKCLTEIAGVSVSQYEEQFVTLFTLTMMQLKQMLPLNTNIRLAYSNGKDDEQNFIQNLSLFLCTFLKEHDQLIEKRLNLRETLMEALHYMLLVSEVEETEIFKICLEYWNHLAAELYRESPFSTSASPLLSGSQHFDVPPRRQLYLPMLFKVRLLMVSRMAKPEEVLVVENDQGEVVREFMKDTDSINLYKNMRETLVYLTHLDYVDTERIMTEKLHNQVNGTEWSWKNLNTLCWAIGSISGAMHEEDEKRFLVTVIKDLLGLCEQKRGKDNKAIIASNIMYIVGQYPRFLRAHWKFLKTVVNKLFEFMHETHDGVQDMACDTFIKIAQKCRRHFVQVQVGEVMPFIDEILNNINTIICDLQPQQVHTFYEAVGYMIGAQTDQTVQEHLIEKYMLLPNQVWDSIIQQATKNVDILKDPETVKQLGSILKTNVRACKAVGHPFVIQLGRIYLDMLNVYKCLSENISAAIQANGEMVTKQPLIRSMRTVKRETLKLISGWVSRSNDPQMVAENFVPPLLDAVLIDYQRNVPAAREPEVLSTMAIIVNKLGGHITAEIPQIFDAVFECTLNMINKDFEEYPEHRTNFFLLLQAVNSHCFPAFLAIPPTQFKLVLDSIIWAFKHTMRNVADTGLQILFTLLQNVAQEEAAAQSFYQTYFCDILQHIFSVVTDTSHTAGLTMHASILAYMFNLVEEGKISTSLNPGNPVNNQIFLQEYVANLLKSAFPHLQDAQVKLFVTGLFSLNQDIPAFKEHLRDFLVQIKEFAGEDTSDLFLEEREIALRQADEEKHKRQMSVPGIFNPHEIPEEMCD

[9] = molecular target: Exportin-1 (Homo sapiens) (UniProt O14980); experiment: Inhibition of CRM1 in human HuH7 cells assessed as accumulation of RIOK2 in nucleus at 0.1 to 10 uM measured after 6 hrs by DAPI staining based confocal microscopy analysis; assay type: cell-based
[10] = molecular target: T1, NAD-dependent protein deacetylase sirtuin-1 (Homo sapiens); experiment: Inhibition of human recombinant SIRT1 at 10 uM using FLUOR DE LYS SIRT1, deacetylase as substrate preincubated for 2 mins followed by substrate addition measured after 1 hr in presence of NAD+ by fluorescence assay relative to control
HepG2 [11] = experiment: Cytotoxicity against human HepG2 cells assessed as reduction in cell viability measured after 72 hrs by MTT assay; assay type: functional, cell-based; details: HepG2, 72 h
Huh-7 [12] = experiment: Cytotoxicity against human HuH7 cells assessed as reduction in cell viability measured after 24 hrs by MTT assay; assay type: functional, cell-based; details: Huh-7, 24 h
HepG2 [13] = experiment: Cytotoxicity against human HepG2 cells assessed as reduction in cell viability measured after 24 hrs by MTT assay; assay type: functional, cell-based; details: HepG2, 24 h

Row | inhibition [7] [%] | inhibition [8] | inhibition [9] | inhibition [10] [%] | Compound | IC50 (Hep 3B2) [nM] | Activity (HepG2 [1]) | IC50 (HepG2 [2]) [nM] | IC50 (Huh-7 [3]) [nM] | IC50 (HepG2 [4]) [nM] | Activity (HepG2 [5]) | IC50 (Huh-7 [6]) [nM] | IC50 (HepG2 [11]) [nM] | IC50 (Huh-7 [12]) [nM] | IC50 (HepG2 [13]) [nM]
1 |  |  |  |  | O=C1C=CC[C@H](/C=C/c2ccccc2)O1 [GONIOTHALAMIN] | 5400 | Active | 625 to 2500 |  |  |  |  |  |  | 
2 | 65 | Active | Active | 17 | O=C1C=CCC(c2cc3c(c4ccccc24)CCCC3)O1 (racemic) |  |  |  | 1250 | 625 | Active | 2500 | 100 | 5000 | 5000
